# “Also recorded” adds a separate entry of the source.
# How the values were obtained:
# [1] = IPA solubility and stability in Cleave 1 solution / Cleave Reagent formulations (concentration curve); type: physicochemical; conditions: for Color / Precipitate / Solubility / pH: Cleave 1 solution
# Description: IPA was initially tested for solubility and stability in Cleave Reagent formulations. […] IPA was then tested by sequencing in a head-to-head comparison with the reference cleaving reagent, gallic acid, to provide a performance benchmark. IPA was implemented into a sequencing workflow as a standalone powder component to the cleave reagent. See, Example IV.
# This example tests alternative formulations and chemistry for a cleave mix including TCEP as a standard reducing agent and IPA as a radical oxygen scavenger. The goal is to test both solubility and the ease of implementation into a kit configuration.
# Formation of solid components directly within a Cleave 1 solution using an IPA concentration curve (10 mM, 25 mM and 50 mM) was assessed by measuring solubility, color, precipitate observation and pH level.
# [2] = Carnitine and acetylcarnitine solubility and stability in Cleave reagent; type: physicochemical; conditions: for solubility into Cleave reagent: 10 mM, 25 mM and 50 mM; for stability against discoloration and precipitation: cleave reagent formulations, storage at room temperature; for solubility in cleave reagent formulations: over a range of concentrations; for stability of solutions (discoloration or precipitate): room temperature (RT), a few hours of storage
# Description: L-carnitine and O-acetyl-carnitine were tested for solubility and stability in cleave reagent formulations similarly to IPA. […] See, Example V.
# This example tests carnitine-based compounds for solubility into Cleave reagent. Various concentrations (10 mM, 25 mM and 50 mM) of carnitine and acetylcarnitine were tested for solubility and stability.
structure (smiles),measurement,setting,value
"O=C(O)CCc1c[nH]c2ccccc12 [IPA, indole-3-propionic acid]",Color,"[1]; 10 mM/2-8 C.°, 0 hours",No color; also recorded: Transparent
same,Precipitate,"[1]; 10 mM/2-8 C.°, 0 hours",None
same,Solubility,"[1]; 10 mM/2-8 C.°, 0 hours",Excellent
same,pH,"[1]; 10 mM/2-8 C.°, 0 hours",12.81
same,Color,"[1]; 10 mM/2-8 C.°, 8 hours",Transparent; also recorded: No color
same,Precipitate,"[1]; 10 mM/2-8 C.°, 8 hours",None
same,Solubility,"[1]; 10 mM/2-8 C.°, 8 hours",Excellent
same,pH,"[1]; 10 mM/2-8 C.°, 8 hours",12.80
same,Color,"[1]; 10 mM/2-8 C.°, 48 hours",Transparent; also recorded: No color
same,Precipitate,"[1]; 10 mM/2-8 C.°, 48 hours",None
same,Solubility,"[1]; 10 mM/2-8 C.°, 48 hours",Excellent
same,pH,"[1]; 10 mM/2-8 C.°, 48 hours",12.83
same,Color,"[1]; 10 mM/RT, 0 hours",Transparent; also recorded: No color
same,Precipitate,"[1]; 10 mM/RT, 0 hours",None
same,Solubility,"[1]; 10 mM/RT, 0 hours",Excellent
same,pH,"[1]; 10 mM/RT, 0 hours",12.88
same,Color,"[1]; 10 mM/RT, 8 hours",Transparent; also recorded: No color
same,Precipitate,"[1]; 10 mM/RT, 8 hours",None
same,Solubility,"[1]; 10 mM/RT, 8 hours",Excellent
same,pH,"[1]; 10 mM/RT, 8 hours",12.83
same,Color,"[1]; 10 mM/RT, 48 hours",Transparent; also recorded: No color
same,Precipitate,"[1]; 10 mM/RT, 48 hours",None
same,Solubility,"[1]; 10 mM/RT, 48 hours",Excellent
same,pH,"[1]; 10 mM/RT, 48 hours",12.79
same,Precipitate,"[1]; 25 mM RT, 0 hours",None
same,Solubility,"[1]; 25 mM RT, 0 hours",Excellent
same,pH,"[1]; 25 mM RT, 0 hours",12.78
same,Precipitate,"[1]; 25 mM/2-8 C.°, 0 hours",None
same,Solubility,"[1]; 25 mM/2-8 C.°, 0 hours",Excellent
same,pH,"[1]; 25 mM/2-8 C.°, 0 hours",12.75
same,Precipitate,"[1]; 25 mM/2-8 C.°, 8 hours",None
same,Solubility,"[1]; 25 mM/2-8 C.°, 8 hours",Excellent
same,pH,"[1]; 25 mM/2-8 C.°, 8 hours",12.71
same,Precipitate,"[1]; 25 mM/2-8 C.°, 48 hours",None
same,Solubility,"[1]; 25 mM/2-8 C.°, 48 hours",Excellent
same,pH,"[1]; 25 mM/2-8 C.°, 48 hours",12.76
same,Precipitate,"[1]; 25 mM/RT, 8 hours",None
same,Solubility,"[1]; 25 mM/RT, 8 hours",Excellent
same,pH,"[1]; 25 mM/RT, 8 hours",12.67
same,Precipitate,"[1]; 25 mM/RT, 48 hours",None
same,Solubility,"[1]; 25 mM/RT, 48 hours",Excellent
same,pH,"[1]; 25 mM/RT, 48 hours",12.71
same,Color,"[1]; 50 mM/2-8 C.°, 0 hours",Transparent; also recorded: Pale yellow
same,Precipitate,"[1]; 50 mM/2-8 C.°, 0 hours",None
same,Solubility,"[1]; 50 mM/2-8 C.°, 0 hours",Excellent
same,pH,"[1]; 50 mM/2-8 C.°, 0 hours",12.67
same,Precipitate,"[1]; 50 mM/2-8 C.°, 8 hours",None
same,Solubility,"[1]; 50 mM/2-8 C.°, 8 hours",Excellent
same,pH,"[1]; 50 mM/2-8 C.°, 8 hours",12.61
same,Precipitate,"[1]; 50 mM/2-8 C.°, 48 hours",None
same,Solubility,"[1]; 50 mM/2-8 C.°, 48 hours",Excellent
same,pH,"[1]; 50 mM/2-8 C.°, 48 hours",12.64
same,Precipitate,"[1]; 50 mM/RT, 0 hours",None
same,Solubility,"[1]; 50 mM/RT, 0 hours",Excellent
same,pH,"[1]; 50 mM/RT, 0 hours",12.61
same,Precipitate,"[1]; 50 mM/RT, 8 hours",None
same,Solubility,"[1]; 50 mM/RT, 8 hours",Excellent
same,pH,"[1]; 50 mM/RT, 8 hours",12.69
same,Precipitate,"[1]; 50 mM/RT, 48 hours",None
same,Solubility,"[1]; 50 mM/RT, 48 hours",Excellent
same,pH,"[1]; 50 mM/RT, 48 hours",12.72
same,stability against discoloration and precipitation,"[1]; Cleave Reagent formulations, prolonged storage at room temperature",stable against discoloration and precipitation
same,stability (lack of discoloration and/or formation of precipitate),[1]; aqueous solution at pH ~12,relative stability
same,solubility in cleave reagent formulations,[1]; over a range of concentrations,highly soluble
same,solubility in aqueous solution,[1]; pH ~12,highly soluble
C[N+](C)(C)C[C@H](O)CC(=O)[O-] [L-carnitine],solubility into Cleave reagent,[2],very soluble
same,stability against discoloration and precipitation,[2],stable against discoloration and precipitation
same,solubility in cleave reagent formulations,[2],highly soluble
same,stability of solutions (discoloration or precipitate),[2],no discoloration or precipitate were observed
"CC(=O)O[C@H](CC(=O)[O-])C[N+](C)(C)C [O-acetyl-carnitine, O-acetyl-L-carnitine]",solubility into Cleave reagent,[2],very soluble
same,stability against discoloration and precipitation,[2],stable against discoloration and precipitation
same,solubility in cleave reagent formulations,[2],highly soluble
same,stability of solutions (discoloration or precipitate),[2],no discoloration or precipitate were observed
